Data as given in patent US20240425518A1, “N-MACROCYCLIC AMIDE COMPOUNDS, PREPARATION METHODS THEREOF AND APPLICATIONS THEREOF AS MEDICAMENTS” (Chengdu FANXI Biopharma Co., Ltd., priority 2023, published 2024).

Experiments:
JAK3 (h) = biological target: T1, JAK3 (h) (Homo sapiens, UniProt P52333); assay: Radioisotope labeling kinase assay (Eurofins), JAK3; format: biochemical; settings: for activity at 1 µM: 1 μM compound, read-out: Inhibitory activity per unit concentration/Activity % JAK3 (h)
T1 construct: purchased Eurofins
T1 sequence (P52333 1-1124): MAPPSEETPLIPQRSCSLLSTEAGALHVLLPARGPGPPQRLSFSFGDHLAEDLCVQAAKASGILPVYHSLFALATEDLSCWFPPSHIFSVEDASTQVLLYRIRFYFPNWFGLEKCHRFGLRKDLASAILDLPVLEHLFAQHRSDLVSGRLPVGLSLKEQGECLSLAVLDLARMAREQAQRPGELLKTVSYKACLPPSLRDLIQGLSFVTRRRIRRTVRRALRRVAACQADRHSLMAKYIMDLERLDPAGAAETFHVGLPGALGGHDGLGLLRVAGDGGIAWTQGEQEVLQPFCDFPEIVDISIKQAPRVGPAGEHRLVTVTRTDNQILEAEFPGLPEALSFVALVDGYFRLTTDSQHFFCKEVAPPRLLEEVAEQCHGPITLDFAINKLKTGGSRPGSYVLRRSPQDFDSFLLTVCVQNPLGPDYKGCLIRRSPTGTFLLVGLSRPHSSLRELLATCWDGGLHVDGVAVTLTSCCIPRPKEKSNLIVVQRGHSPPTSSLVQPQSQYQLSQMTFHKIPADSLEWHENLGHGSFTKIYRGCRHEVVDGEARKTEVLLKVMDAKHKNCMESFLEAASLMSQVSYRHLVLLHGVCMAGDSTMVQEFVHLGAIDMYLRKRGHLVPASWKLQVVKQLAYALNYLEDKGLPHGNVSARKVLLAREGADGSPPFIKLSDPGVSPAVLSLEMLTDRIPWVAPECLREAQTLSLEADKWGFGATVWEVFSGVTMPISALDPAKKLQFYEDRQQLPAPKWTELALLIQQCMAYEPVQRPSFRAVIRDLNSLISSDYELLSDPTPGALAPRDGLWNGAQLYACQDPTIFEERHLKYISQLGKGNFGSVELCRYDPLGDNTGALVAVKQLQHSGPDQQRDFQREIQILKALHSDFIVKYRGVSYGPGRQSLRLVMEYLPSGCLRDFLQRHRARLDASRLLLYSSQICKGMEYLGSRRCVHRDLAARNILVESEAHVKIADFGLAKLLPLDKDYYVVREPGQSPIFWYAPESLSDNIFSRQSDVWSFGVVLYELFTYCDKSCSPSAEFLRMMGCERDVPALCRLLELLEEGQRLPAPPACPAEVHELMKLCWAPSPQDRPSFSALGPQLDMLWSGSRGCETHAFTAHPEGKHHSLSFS
Method: (§1) An activity to a human recombinant protein kinase of a series of compounds was determined by a radioisotope labeling method, which was provided by Eurofins Company. A compound to be detected was mixed with a corresponding protein kinase buffer (20 mM propyl sulfonate (MOPS, […].), 1 mM EDTA, 0.10 β-mercaptoethanol, 0.010 Brij-35, […], and 1 mg/mL BSA), the mixture was added into a reaction system (100 μM reaction substrate […], 8 mM MOPS with a pH value of 7.0, 10 mM MgAcetate, 0.2 mM EDTA, and a certain concentration of γ-^33P-ATP). After adding an MgATP composite solution, the reaction was started at room temperature for 40 minutes, and the reaction was terminated by adding 5 μl of […] solution. Then, 10 μl of reaction solution was dropwise added onto a filter and washed with 75 mM phosphoric acid solution for three times, 5 minutes each time, then washed with methanol once again, and dried and subjected to scintillation counting.

Flt3 (h) = biological target: T2, Flt3 (h) (Homo sapiens, UniProt P36888); assay: Radioisotope labeling kinase assay (Eurofins), Flt3; format: biochemical; settings: for activity at 1 µM: 1 μM compound, read-out: Inhibitory activity per unit concentration/Activity % Flt3 (h)
T2 construct: purchased Eurofins
T2 sequence (P36888 27-993): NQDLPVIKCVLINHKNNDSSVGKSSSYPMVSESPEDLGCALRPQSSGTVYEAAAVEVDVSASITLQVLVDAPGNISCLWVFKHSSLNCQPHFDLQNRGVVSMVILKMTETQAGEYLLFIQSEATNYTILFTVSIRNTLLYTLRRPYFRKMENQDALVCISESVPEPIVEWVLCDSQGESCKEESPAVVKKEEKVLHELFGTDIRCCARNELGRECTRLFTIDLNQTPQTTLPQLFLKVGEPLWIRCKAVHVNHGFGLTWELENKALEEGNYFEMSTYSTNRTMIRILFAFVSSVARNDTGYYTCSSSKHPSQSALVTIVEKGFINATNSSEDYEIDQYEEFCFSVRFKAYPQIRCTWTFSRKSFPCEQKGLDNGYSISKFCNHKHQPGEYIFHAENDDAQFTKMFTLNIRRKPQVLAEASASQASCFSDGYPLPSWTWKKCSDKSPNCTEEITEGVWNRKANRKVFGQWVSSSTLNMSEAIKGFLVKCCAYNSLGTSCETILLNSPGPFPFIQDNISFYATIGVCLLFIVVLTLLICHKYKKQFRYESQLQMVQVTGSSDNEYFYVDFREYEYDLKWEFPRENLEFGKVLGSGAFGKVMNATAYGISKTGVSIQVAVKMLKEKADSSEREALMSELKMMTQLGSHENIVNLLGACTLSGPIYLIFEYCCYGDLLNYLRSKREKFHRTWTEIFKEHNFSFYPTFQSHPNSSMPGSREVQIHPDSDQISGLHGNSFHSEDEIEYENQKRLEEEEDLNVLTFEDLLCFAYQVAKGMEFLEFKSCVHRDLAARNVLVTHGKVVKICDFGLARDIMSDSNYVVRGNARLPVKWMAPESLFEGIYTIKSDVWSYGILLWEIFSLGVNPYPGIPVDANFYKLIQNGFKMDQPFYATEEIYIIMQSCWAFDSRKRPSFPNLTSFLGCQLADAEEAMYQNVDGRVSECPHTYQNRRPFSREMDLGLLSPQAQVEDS
Method: as §1

| Compound | activity at 1 µM (JAK3 (h)) [%] | IC50 (Flt3 (h)) [nM] | activity at 1 µM (Flt3 (h)) [%] | IC50 (JAK3 (h)) [nM] |
| --- | --- | --- | --- | --- |
| C=CC(=O)Nc1cc2cc(c1)Nc1nccc(n1)-c1cccc(c1)COC/C=C/COC2 [XVI-6] | 16 | 15 | 5 |  |
| O=C(O)/C=C/C(=O)Nc1cc2cc(c1)Nc1nccc(n1)-c1cccc(c1)COC/C=C/COC2 [XVI-9] | 4 | 31 | 4 | 17 |
| O=C(/C=C/CN1CCOCC1)Nc1cc2cc(c1)Nc1nccc(n1)-c1cccc(c1)COC/C=C/COC2 [XVI-3] | 8 | 4 | 3 |  |
| O=C(/C=C/C(=O)N1CCNCC1)Nc1cc2cc(c1)Nc1nccc(n1)-c1cccc(c1)COC/C=C/COC2 [XVI-11] | 6 | 22 | 1 | 151 |
| CN(C)C/C=C/C(=O)Nc1cc2cc(c1)Nc1nccc(n1)-c1cccc(c1)COC/C=C/CN(C)C2 [XVI-26] | 74 | 21 | 7 |  |
| O=C(/C=C/CN1CCCC1)Nc1cc2cc(c1)Nc1nccc(n1)-c1cccc(c1)COC/C=C/COC2 [XVI-1] | 9 | 2 | 1 |  |
| C/C=C/C(=O)Nc1cc2cc(c1)Nc1nccc(n1)-c1cccc(c1)COC/C=C/COC2 [XVI-4] | 11 | 5 | 5 |  |
| C/C=C/C(=O)Nc1cc2cc(c1)Nc1nccc(n1)-c1cccc(c1)COC/C=C/CN(C)C2 [XVI-28] | 51 | 9 | 8 |  |
| Nc1cc2cc(c1)Nc1nccc(n1)-c1cccc(c1)COC/C=C/COC2 [XIII-1] | 10 | 8 | 4 |  |
| O=C(/C=C/C(=O)N1CCOCC1)Nc1cc2cc(c1)Nc1nccc(n1)-c1cccc(c1)COC/C=C/COC2 [XVI-10] | 2 | 21 | 3 | 44 |
| C#CC(=O)Nc1cc2cc(c1)Nc1nccc(n1)-c1cccc(c1)COC/C=C/COC2 [XVII-1] | 16 | 7 | 4 |  |
| C1=C/COCc2cccc(c2)-c2ccnc(n2)Nc2cc(cc(OC/C=C/CN3CCCC3)c2)COC/1 [XVI-12] | 26 | 15 | -8 |  |
| CN(C)C/C=C/C(=O)Nc1cc2cc(c1)Nc1nccc(n1)-c1cccc(c1)COC/C=C/COC2 [XVI-8] | 19 | 9 | 2 |  |
